Measurements from patent US5760036A, “Aminediol protease inhibitors” (E. R. Squibb & Sons, Inc., priority 1995, dated 1998).
Counter-ions that a name gives are not always drawn.

Experiments:
[1] = target: T1, HIV protease (Human immunodeficiency virus type 1 group M subtype B, UniProt P04585); assay: HIV Protease Assay; type: biochemical; conditions: 4% DMSO, 450 μM substrate, pH 5.5, 30 minutes at 37° C., RP-HPLC; for inhibition at 10 µM: pH 5.5, 10 μM inhibitor, read-out: HIV Protease % Inhibition at 10 μM
T1 construct: and purified protease
Outline: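 Purified protease cleaved 450 μM octapeptide substrate in 50 mM sodium acetate pH 5.5 with 100 μg/ml BSA for 30 minutes at 37° C; product analyzed by reverse-phase HPLC at UV220 after H3PO4 quench. Inhibitors tested at final 10 μM with 4% DMSO.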

[2] = test system: RF strain of HIV (CEM-SS cells); assay: Cell Culture Anti-HIV Activity (cell viability, formazan); type: cell-based; conditions: Human immunodeficiency virus 1, CEM-SS, 144 h, CEM-SS cells, RF strain of HIV, multiplicity of infection 0.04, 6 days at 37° C., 450 nm; read-out: HIV (CEM Cells) IC50
Outline: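 CEM-SS cells (5000/well) infected with HIV RF at MOI 0.04, exposed to half-log serial compound dilutions, incubated 6 days at 37° C. Viability read by tetrazolium reduction to formazan, absorbance 450 nm. IC50 is the concentration raising formazan in infected cells to 50% of uninfected, drug-free cells.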

Row | SMILES | inhibition at 10 µM [1] | IC50 [2] | HIV Protease % Inhibition at 10 μM ([1]; 10 μM inhibitor)
1 | CC(C)(C)OC(=O)N[C@@H](Cc1ccccc1)[C@H](O)CNC[C@@H](O)[C@H](Cc1ccccc1)NC(=O)[C@@H](NC(=O)OCc1nc2ccccc2s1)C(C)(C)C [Compound 292, [S-[1R*,2S*(2S*,3R*)]]-[2,2-Dimethyl-1-[[[3-[[3-[[(1,1-dimethylethoxy)carbonyl]amino]-2-hydroxy-4-phenylbutyl]amino]-2-hydroxy-1-(phenylmethyl)propyl]amino]carbonyl]propyl]carbamic acid, (2-benzothiazolyl)methyl ester] | 99% | 170 nM | 
2 | CC(C)(C)OC(=O)N[C@@H](Cc1ccccc1)[C@H](O)CNC[C@@H](O)[C@H](Cc1ccccc1)NC(=O)[C@@H](NC(=O)OCCOCc1ccccc1)C(C)(C)C [Compound 351, [S-[1R*,2S*(2S*,3R*)]]-[2,2-Dimethyl-1-[[[3-[[3-[[(1,1-dimethyl-ethoxy)carbonyl]amino]-2hydroxy-4-phenylbutyl]amino-2-hydroxy-1-(phenylmethyll)-propyl]amino]carbonyl]propyl]carbamic acid, 2-(phenylmethoxy)ethyl ester] | 99% | 80 nM | 
3 | C[C@H](NC=O)C(=O)N[C@H](C(=O)N[C@@H](Cc1ccccc1)[C@H](O)CNC[C@@H](O)[C@H](Cc1ccccc1)NC(=O)OC(C)(C)C)C(C)(C)C (relative stereo) [Compound 284, [1R*,2S*(2S*,3R*)]-N-[3-[[(1,1-Dimethylethoxy)carbonyl]amino]-2-hydroxy-4-phenylbutyl]amino]-2-hydroxy-1-(phenylmethyl)propyl]-N^2-(N-formyl-L-alanyl)-3-methyl-L-valinamide] | 100% | 4400 nM | 
4 | CC(C)[C@H](NC(=O)[C@H](C)N)C(=O)N[C@@H](Cc1ccccc1)[C@H](O)CNC[C@@H](O)[C@H](Cc1ccccc1)NC(=O)OC(C)(C)C [Compound 96, [S-[1R*,2S*(2S*,3R*)]-N-]3-[[3-[[(1,1-Dimethylethoxy)carbonyl]amino]-2-hydroxy-4-phenylbutyl]amino]-2-hydroxy-1(phenylmethyl)propyl]-N^2-(L-alanyl)-L-valinamide, fumarate salt] | 100% | > 7600 nM | 
5 | CC(C)(C)OC(=O)N[C@@H](Cc1ccccc1)[C@H](O)CNC[C@@H](O)[C@H](Cc1ccccc1)NC(=O)[C@@H](NC(=O)OCc1nc(-c2ccccc2)co1)C(C)(C)C [Compound 345, [S-(1R*,2S*(2S*,3R*)]]-[2,2-Dimethyl-1-[[[3-[[3-[[1,1-dimethylethoxy)-carbonyl]amino]-2-hydroxy-4-phenylbutyl]amino]-2-hydroxy-1-(phenylmethyl)propyl]amino]-carbonyl]propyl]carbamic acid, (4-phenyl-2-oxazolyl)methyl ester] | 99% | 330 nM | 
6 | CC(C)(C)OC(=O)N[C@@H](Cc1ccccc1)[C@H](O)CNC[C@@H](O)[C@H](Cc1c[nH]c2ccccc12)NC(=O)OCc1ccccc1 [Compound 22, [1S-[1R*,2S*(2S*,3R*)]]-[3-[[3-[[(1,1-Dimethylethoxy)carbonyl]amino]-2-hydroxy-4-ehenylbutyl]amino]-2-hydroxy-1-[(1H-indol-3-yl)methyl]propyl]carbamic acid, phenylmethyl ester] | 90% | > 1800 nM | 
7 | CC(C)(C)OC(=O)N[C@@H](Cc1ccccc1)[C@H](O)CNC[C@@H](O)[C@H](Cc1ccccc1)NC(=O)C1(O)COCC1(C)C (single isomer, unassigned; isomer a) [Compound 364, [1S-[1R*,2S*(2S*,3R*)]]-[2-Hydroxy-3-[[tetrahydro-3-hydroxy-4,4-dimethyl-3-furanyl)carbonyl]amino]-4-phenylbutyl]amino]-1-(phenylmethyl)-propyl]carbamic acid, 1,1-dimethylethyl ester, Isomer A] |  | 220 nM | 98%
